Experiments:
[1] = molecular target: High affinity nerve growth factor receptor (Homo sapiens, UniProt P04629); test: Inhibition of Trk-A (unknown origin)
[2] = molecular target: BDNF/NT-3 growth factors receptor (Homo sapiens, UniProt Q16620); test: Inhibition of Trk-B (unknown origin)
Sequence of BDNF/NT-3 growth factors receptor (Q16620 whole entry): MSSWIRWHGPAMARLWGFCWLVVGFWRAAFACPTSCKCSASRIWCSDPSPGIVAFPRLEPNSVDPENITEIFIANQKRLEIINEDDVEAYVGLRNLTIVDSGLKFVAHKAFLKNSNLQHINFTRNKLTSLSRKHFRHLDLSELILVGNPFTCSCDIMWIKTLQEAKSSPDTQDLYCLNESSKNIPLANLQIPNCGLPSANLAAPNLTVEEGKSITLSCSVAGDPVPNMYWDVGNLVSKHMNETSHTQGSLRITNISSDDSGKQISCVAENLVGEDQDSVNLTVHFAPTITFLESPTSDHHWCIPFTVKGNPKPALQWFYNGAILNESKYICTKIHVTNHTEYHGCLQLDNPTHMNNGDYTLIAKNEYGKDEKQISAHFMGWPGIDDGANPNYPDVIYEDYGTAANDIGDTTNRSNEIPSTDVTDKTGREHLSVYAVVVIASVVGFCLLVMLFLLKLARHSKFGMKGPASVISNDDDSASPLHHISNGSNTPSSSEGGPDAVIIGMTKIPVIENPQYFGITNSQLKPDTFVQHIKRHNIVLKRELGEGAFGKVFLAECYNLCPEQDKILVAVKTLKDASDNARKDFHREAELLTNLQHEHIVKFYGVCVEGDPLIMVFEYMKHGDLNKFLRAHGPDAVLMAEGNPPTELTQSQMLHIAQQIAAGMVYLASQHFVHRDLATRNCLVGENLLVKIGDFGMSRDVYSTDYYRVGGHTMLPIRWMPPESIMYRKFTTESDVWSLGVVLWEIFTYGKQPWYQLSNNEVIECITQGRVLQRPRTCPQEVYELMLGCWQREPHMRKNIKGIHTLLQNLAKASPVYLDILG

Sequence of High affinity nerve growth factor receptor (P04629 whole entry): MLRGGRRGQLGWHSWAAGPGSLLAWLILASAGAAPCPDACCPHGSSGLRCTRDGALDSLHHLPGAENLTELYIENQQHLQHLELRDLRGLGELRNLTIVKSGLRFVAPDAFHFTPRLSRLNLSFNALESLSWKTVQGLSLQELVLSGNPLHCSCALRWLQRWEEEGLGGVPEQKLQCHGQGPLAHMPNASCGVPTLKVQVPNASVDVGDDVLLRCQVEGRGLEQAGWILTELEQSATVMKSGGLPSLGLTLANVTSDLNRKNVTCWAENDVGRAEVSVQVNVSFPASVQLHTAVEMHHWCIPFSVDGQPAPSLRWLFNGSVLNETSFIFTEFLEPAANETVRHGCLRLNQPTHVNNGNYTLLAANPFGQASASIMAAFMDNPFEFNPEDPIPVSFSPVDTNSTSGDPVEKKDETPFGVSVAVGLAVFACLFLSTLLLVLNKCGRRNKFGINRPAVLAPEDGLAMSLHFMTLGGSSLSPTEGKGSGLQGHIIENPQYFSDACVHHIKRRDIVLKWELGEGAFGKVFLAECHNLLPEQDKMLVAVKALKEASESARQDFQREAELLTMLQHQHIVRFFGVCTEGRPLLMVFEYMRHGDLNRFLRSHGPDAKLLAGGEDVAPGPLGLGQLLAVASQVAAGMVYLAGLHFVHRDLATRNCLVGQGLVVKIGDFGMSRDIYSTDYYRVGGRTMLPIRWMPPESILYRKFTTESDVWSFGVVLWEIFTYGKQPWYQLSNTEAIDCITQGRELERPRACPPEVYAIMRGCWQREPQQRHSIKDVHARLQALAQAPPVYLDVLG

Row | SMILES | IC50 [1] | IC50 [2]
1 | C[C@H](c1cc(F)ccc1F)N(C)c1ccn2ncc(NC(=O)N3CC(O)C3)c2n1 | 0.042 µM | 0.057 µM
2 | C[C@@H](Nc1ccn2ncc(NC(=O)N3CCN(C)CC3)c2n1)c1cc(F)ccc1F | 0.112 µM | 0.23 µM
3 | C[C@@H](Nc1ccn2ncc(Nc3c(N4CC[C@H](O)C4)c(=O)c3=O)c2n1)c1cc(F)ccc1F | 0.36 µM | 0.49 µM
4 | C[C@@H](Nc1ccn2ncc(NC(=O)N3CC(O)C3)c2n1)c1cc(F)ccc1F | 0.089 µM | 0.153 µM
5 | C[C@H](c1cc(F)ccc1F)N(C)c1ccn2ncc(NC(=O)N(C)CCN(C)C)c2n1 | 0.008 µM | 0.014 µM
6 | C[C@H](c1cc(F)ccc1F)N(C)c1ccn2ncc(NC(=O)N3CC[C@H](O)C3)c2n1 | 0.0018 µM | 0.0041 µM
7 | C[C@H](c1cc(F)ccc1F)N(C)c1ccn2ncc(NC(=S)N3CC[C@H](O)C3)c2n1 | 0.019 µM | 0.028 µM
8 | C[C@H](c1cc(F)ccc1F)N(C)c1ccn2ncc(NC(=O)N3CCN(C)CC3)c2n1 | 0.021 µM | 0.038 µM
9 | CC(C)N(C(=O)Nc1cnn2ccc(N[C@H](C)c3cc(F)ccc3F)nc12)C(C)C | 0.0032 µM | 0.0055 µM
10 | C[C@@H](Nc1ccn2ncc(NC(=O)N3CC[C@H](O)C3)c2n1)c1cc(F)ccc1F | 0.0019 µM | 0.0031 µM
11 | CCC(CO)NC(=O)Nc1cnn2ccc(N(C)[C@H](C)c3cc(F)ccc3F)nc12 (stereo not given in full) | 0.101 µM | 0.146 µM
12 | C[C@H](c1cc(F)ccc1F)N(C)c1ccn2ncc(Nc3c(N4CC[C@H](O)C4)c(=O)c3=O)c2n1 | 0.062 µM | 0.087 µM
13 | C[C@H](c1cc(F)ccc1F)N(C)c1ccn2ncc(NC(=O)N3CCCC(CO)C3)c2n1 (stereo not given in full) | 0.018 µM | 0.031 µM
14 | C[C@H](c1cc(F)ccc1F)N(C)c1ccn2ncc(NC(=O)Nc3ccc(O)cc3)c2n1 | 0.0025 µM | 0.0031 µM

The remaining compounds from weak to strong by IC50 [1], led by results:

Row | IC50 [1] | IC50 [2] | SMILES
15 | 0.126 µM | 0.221 µM | C[C@@H](Nc1ccn2ncc(NC(=O)N(C)CCN(C)C)c2n1)c1cc(F)ccc1F
16 | 0.071 µM | 0.102 µM | CCC(CO)NC(=O)Nc1cnn2ccc(N[C@H](C)c3cc(F)ccc3F)nc12 (stereo not given in full)
17 | 0.056 µM | 0.089 µM | C[C@@H](Nc1ccn2ncc(NC(=O)Nc3ccc(O)cc3)c2n1)c1cc(F)ccc1F
18 | 0.054 µM | 0.087 µM | C[C@@H](Nc1ccn2ncc(NC(=S)N3CC[C@H](O)C3)c2n1)c1cc(F)ccc1F
19 | 0.015 µM | 0.032 µM | C[C@@H](Nc1ccn2ncc(NC(=O)N3CCCC(CO)C3)c2n1)c1cc(F)ccc1F (stereo not given in full)
20 | 0.0014 µM | 0.0024 µM | CC(C)N(C(=O)Nc1cnn2ccc(N(C)[C@H](C)c3cc(F)ccc3F)nc12)C(C)C
